The series deals with Artemia. Put plainly: Toxicity in brine shrimp. The format is organism-based. As to conditions: in vivo; call rule not given here.

This passage reports Activity results from ChEMBL document CHEMBL1158677, “New Diterpene Lactones from the Sponge Spongia matamata” (J Nat Prod, 1998).

`C[C@]12CC(=O)O[C@@](C)(CO)[C@@H]1CC[C@@]1(C)c3cocc3CC[C@H]21`: the Activity result was “Not Active”.
